Assay results reported in ChEMBL document CHEMBL4312034, “Virtual screening-driven discovery of dual 5-HT6/5-HT2A receptor ligands with pro-cognitive properties” (Eur J Med Chem, 2020).
The source made the active and inactive calls. The calls are words filed in the database; no cut-off is given here.

Key:
HepG2 [1] = test: Cytotoxicity against human HepG2 cells after 24 hrs by ToxiLight bioassay; conditions: HepG2, 24 h
[2] = target: T1, Alpha-1A adrenergic receptor (Homo sapiens) (UniProt P35348); test: Displacement of [3H]prazosin from recombinant human alpha 1A adreno receptor at 10^-6 M after 60 mins by radiometric scintillation counting analysis relative to control
T1 sequence (whole entry): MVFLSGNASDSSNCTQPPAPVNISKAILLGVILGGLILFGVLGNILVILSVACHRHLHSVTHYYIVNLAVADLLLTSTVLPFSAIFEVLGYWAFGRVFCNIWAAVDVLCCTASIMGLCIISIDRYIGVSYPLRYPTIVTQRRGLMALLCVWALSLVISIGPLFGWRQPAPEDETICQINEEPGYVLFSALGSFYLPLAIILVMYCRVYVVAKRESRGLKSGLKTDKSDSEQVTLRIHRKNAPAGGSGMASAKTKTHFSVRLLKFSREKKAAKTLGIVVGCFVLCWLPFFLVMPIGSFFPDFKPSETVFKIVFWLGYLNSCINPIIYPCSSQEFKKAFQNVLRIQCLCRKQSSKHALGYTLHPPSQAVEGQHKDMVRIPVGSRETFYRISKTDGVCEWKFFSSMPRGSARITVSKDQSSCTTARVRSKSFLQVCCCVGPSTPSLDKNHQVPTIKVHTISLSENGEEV

in vitro = conditions: rat, liver microsomes
[3] = target: T2, 5-hydroxytryptamine receptor 1A (Homo sapiens, UniProt P08908); test: Displacement of [3H]-8-OH-DPAT from human 5-HT1A receptor expressed in HEK293 cells after 1 hr by microbeta plate reader analysis; format: cell-based
T2 sequence (P08908 whole entry): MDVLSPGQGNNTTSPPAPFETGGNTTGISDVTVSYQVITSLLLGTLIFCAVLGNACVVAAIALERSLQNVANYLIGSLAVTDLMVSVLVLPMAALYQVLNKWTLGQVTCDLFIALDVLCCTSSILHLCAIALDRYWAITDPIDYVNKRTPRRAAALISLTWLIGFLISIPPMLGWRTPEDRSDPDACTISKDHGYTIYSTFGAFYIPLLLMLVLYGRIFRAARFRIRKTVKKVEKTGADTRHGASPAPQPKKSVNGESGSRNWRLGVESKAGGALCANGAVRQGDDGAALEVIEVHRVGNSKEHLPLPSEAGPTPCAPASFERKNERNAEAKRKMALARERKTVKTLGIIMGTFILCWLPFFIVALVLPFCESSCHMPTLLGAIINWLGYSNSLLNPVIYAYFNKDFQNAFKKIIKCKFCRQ

HepG2 [4] = test: Cytotoxicity against human HepG2 cells assessed as reduction in cell viability after 24 hrs by presto-blue assay; conditions: HepG2, 24 h
[5] = target: T3, 5-hydroxytryptamine receptor 2A (Homo sapiens, UniProt P28223); test: Binding affinity to human 5-HT2AR expressed in HEK293 cells by competitive binding assay; format: cell-based
[6] = target: T4, 5-hydroxytryptamine receptor 6 (Homo sapiens, UniProt P50406); test: Displacement of [3H]-LSD from human 5-HT6R expressed in HEK293 cells after 1 hr by microbeta plate reader analysis; format: cell-based
P-gp (ABCB1) [7] = target: T5, P-gp (ABCB1) (Homo sapiens, UniProt P08183); test: Substrate activity at Pgp (unknown origin) assessed as permeability from basolateral to apical side by cell based assay; format: ADME; conditions: not told
Rattus norvegicus = test: Reversal of phencyclidine-induced memory impairment in Sprague-Dawley rat at 3 to 10 mg/kg, po for 2 hrs followed by phencyclidine treatment 45 mins prior to testing by novel object recognition test; format: functional, organism-based
[8] = target: T4, 5-hydroxytryptamine receptor 6; test: Antagonist activity at human 5-HT6 receptor expressed in HEK293 cells assessed as inhibition of 5-CT induced cAMP production incubated for 30 mins by TR-FRET assay; format: functional, cell-based
[9] = Mutagenicity in Salmonella typhimurium TA100 at 1 to 10 uM incubated for 90 mins followed by replating on medium without histidine and measured after 72 hrs by Ames test; format: toxicity; conditions: salmonella enterica subsp. enterica serovar typhimurium
[10] = Half life in rat liver microsomes up to 60 mins by HPLC-LC/MS analysis; conditions: liver microsomes
[11] = target: 5-hydroxytryptamine receptor 2B (Homo sapiens) (UniProt P41595); test: Displacement of [3H]-Mesulergine from recombinant human 5-HT2B receptor at 10^-6 M after 60 mins by radiometric scintillation analysis relative to control
[12] = target: 5-hydroxytryptamine receptor 7 (Homo sapiens, UniProt P34969); test: Displacement of [3H]-CT from human 5-HT7 receptor expressed in HEK293 cells after 1 hr by microbeta plate reader analysis; format: cell-based
[13] = target: Histamine H1 receptor (Homo sapiens) (UniProt P35367); test: Displacement of [3H]pyrilamine from recombinant human H1 receptor at 10^-6 M after 60 mins by radiometric scintillation counting analysis relative to control
[14] = Ratio of Cmax in brain to plasma in Wistar rat at 10 mg/kg, po; format: ADME, organism-based; conditions: read-out: BPR
P-gp (ABCB1) [15] = target: T5, P-gp (ABCB1); test: Substrate activity at Pgp (unknown origin) assessed as permeability from apical to basolateral side by cell based assay; format: ADME; conditions: not told
Cytochrome P450 2D6 = Cytochrome P450 2D6 (Homo sapiens, UniProt P10635); test: Inhibition of human CYP2D6 preincubated for 5 mins followed by NADPH addition and measured after 45 mins by luminescence based microplate reader analysis; format: ADME
[16] = target: T3, 5-hydroxytryptamine receptor 2A; test: Displacement of [3H]-Ketanserin from recombinant human 5-HT2A receptor at 10^-7 M after 60 mins by radiometric scintillation counting analysis relative to control
[17] = target: T6, Muscarinic acetylcholine receptor M1 (Homo sapiens) (UniProt P11229); test: Displacement of [3H]pyrilamine from recombinant human M1 receptor at 10^-6 M after 60 mins by radiometric scintillation counting analysis relative to control
T6 sequence (whole entry): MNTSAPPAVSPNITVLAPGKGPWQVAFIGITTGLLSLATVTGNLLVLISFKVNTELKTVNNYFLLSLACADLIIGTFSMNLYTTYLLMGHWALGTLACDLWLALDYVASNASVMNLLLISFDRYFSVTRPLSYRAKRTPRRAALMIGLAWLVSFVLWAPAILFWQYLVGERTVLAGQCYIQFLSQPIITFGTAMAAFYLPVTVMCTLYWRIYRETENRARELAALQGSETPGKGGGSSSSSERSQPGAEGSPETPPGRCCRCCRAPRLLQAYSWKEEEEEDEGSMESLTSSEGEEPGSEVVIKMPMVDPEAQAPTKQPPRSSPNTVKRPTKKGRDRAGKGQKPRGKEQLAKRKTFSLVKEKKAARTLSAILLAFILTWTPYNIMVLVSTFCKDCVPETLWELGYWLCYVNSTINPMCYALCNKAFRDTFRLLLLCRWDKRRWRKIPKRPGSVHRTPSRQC

[18] = target: T3, 5-hydroxytryptamine receptor 2A; test: Displacement of [3H]-Ketanserin from recombinant human 5-HT2A receptor at 10^-6 M after 60 mins by radiometric scintillation counting analysis relative to control
hERG (KCNH2) = hERG (KCNH2) (Homo sapiens, UniProt Q12809); test: Inhibition of human ERG at 10^-6 M relative to control
Cytochrome P450 3A4 = Cytochrome P450 3A4 (Homo sapiens, UniProt P08684); test: Inhibition of human CYP3A4 preincubated for 5 mins followed by NADPH addition and measured after 30 mins by luminescence based microplate reader analysis; format: ADME
5-HT2C receptor = target: T7, 5-HT2C receptor (Homo sapiens, UniProt P28335); test: Antagonist activity at 5-HT2CR (unknown origin) at 10^-6 M relative to control
T7 sequence (P28335 whole entry): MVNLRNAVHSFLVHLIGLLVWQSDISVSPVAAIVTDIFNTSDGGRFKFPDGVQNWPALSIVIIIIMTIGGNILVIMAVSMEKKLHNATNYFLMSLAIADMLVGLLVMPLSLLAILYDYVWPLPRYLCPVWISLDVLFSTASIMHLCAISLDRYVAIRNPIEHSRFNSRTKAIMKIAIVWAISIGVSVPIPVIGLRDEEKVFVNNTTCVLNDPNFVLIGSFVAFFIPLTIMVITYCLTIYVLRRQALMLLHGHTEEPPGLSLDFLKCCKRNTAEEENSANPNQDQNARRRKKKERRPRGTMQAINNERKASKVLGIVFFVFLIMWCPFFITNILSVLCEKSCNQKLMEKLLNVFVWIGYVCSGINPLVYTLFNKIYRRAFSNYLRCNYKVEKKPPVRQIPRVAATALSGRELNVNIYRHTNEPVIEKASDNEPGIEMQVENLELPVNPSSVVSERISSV

T3 sequence (P28223 whole entry): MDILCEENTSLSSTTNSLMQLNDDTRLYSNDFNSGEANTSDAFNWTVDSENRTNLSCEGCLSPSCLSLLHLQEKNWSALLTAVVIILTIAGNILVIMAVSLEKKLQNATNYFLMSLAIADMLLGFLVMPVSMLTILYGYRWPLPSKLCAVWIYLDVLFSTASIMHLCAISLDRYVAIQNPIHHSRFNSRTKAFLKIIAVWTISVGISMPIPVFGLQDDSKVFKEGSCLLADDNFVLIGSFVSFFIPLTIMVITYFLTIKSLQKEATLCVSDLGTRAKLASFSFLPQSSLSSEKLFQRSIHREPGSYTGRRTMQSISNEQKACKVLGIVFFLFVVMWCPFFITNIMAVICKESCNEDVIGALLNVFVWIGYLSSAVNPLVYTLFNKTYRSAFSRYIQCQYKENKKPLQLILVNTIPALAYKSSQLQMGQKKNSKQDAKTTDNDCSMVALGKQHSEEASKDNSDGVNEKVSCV
T5 sequence (P08183 whole entry): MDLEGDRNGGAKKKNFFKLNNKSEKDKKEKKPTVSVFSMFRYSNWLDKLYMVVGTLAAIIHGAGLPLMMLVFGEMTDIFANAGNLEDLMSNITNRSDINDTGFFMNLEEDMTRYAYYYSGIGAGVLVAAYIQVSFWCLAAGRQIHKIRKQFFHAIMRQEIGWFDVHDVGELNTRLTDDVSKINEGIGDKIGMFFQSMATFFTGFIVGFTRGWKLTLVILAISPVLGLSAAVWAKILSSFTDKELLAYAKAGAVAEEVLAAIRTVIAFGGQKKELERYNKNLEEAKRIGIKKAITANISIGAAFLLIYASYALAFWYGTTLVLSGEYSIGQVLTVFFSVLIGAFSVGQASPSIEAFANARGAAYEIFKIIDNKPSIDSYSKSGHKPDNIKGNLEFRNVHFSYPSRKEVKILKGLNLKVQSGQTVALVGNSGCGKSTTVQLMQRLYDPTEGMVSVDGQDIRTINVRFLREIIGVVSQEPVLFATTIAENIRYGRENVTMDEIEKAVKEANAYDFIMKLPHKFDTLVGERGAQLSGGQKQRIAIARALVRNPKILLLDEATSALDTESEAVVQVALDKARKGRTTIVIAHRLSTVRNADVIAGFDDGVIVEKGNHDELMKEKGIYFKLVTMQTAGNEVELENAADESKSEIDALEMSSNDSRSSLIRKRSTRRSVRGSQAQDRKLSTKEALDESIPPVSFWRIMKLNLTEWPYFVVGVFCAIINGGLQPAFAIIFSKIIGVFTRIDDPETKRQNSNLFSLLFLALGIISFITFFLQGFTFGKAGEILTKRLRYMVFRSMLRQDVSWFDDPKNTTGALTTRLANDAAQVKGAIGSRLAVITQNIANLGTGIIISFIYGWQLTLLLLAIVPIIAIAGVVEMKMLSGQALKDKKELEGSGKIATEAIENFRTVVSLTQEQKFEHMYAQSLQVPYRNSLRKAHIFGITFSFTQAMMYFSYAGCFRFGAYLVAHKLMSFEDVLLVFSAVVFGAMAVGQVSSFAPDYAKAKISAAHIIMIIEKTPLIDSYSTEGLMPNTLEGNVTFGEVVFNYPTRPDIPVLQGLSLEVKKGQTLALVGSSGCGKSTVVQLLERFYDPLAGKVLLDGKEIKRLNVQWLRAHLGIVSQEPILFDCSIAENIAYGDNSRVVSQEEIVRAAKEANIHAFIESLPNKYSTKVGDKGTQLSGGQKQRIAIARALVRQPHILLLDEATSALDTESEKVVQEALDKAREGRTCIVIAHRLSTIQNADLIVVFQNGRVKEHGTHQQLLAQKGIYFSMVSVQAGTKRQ
T4 sequence (P50406 whole entry): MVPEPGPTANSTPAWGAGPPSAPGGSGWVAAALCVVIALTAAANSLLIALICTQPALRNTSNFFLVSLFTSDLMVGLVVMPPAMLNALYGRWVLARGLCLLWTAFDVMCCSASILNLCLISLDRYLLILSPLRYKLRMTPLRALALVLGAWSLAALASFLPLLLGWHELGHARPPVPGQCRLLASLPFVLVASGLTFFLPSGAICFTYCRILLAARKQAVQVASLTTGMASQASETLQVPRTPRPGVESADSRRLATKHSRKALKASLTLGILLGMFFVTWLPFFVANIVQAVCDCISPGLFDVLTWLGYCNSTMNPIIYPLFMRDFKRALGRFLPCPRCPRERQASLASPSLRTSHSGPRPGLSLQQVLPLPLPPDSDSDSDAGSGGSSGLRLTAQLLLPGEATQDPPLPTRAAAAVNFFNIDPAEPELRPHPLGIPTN
Sequence of 5-hydroxytryptamine receptor 2B (Homo sapiens) (P41595 whole entry): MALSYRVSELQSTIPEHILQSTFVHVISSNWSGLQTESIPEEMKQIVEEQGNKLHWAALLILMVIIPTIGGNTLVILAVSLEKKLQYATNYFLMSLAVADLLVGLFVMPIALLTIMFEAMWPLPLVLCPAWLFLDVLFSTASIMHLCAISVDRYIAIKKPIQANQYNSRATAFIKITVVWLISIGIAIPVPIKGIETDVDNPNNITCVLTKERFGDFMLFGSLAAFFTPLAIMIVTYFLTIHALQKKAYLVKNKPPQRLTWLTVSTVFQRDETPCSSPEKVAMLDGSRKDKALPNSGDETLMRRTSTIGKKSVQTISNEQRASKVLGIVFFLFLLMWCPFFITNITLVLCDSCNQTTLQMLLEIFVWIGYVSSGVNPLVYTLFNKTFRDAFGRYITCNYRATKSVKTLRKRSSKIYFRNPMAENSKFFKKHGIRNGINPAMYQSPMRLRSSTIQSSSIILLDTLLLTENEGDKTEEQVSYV
Sequence of Cytochrome P450 3A4 (P08684 whole entry): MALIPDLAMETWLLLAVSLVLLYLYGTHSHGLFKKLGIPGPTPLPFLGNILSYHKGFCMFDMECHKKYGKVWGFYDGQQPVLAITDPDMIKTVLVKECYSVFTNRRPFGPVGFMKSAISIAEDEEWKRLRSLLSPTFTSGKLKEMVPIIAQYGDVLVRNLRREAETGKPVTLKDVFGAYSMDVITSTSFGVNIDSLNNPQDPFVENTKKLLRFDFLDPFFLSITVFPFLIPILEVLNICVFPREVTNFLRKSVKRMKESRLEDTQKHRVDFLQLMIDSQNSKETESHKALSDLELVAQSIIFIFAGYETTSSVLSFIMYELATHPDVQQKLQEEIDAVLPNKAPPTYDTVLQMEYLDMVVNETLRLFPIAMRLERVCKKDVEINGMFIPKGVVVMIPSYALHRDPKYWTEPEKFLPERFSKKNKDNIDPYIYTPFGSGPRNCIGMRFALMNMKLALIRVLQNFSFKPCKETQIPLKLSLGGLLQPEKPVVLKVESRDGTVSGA
Sequence of 5-hydroxytryptamine receptor 7 (P34969 whole entry): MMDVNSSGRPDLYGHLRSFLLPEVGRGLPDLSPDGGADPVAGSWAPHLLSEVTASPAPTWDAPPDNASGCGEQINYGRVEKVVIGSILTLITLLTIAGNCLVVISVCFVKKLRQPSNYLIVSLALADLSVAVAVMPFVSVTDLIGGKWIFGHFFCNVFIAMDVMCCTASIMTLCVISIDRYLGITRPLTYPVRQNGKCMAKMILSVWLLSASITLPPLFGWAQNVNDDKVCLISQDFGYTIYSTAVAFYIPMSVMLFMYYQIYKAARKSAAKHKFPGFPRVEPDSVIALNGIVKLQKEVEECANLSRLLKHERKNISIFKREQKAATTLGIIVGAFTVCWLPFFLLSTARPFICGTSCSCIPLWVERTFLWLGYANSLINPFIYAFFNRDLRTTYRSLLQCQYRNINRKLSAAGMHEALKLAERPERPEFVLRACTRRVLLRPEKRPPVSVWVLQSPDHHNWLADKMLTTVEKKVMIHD
Sequence of Histamine H1 receptor (Homo sapiens) (P35367 whole entry): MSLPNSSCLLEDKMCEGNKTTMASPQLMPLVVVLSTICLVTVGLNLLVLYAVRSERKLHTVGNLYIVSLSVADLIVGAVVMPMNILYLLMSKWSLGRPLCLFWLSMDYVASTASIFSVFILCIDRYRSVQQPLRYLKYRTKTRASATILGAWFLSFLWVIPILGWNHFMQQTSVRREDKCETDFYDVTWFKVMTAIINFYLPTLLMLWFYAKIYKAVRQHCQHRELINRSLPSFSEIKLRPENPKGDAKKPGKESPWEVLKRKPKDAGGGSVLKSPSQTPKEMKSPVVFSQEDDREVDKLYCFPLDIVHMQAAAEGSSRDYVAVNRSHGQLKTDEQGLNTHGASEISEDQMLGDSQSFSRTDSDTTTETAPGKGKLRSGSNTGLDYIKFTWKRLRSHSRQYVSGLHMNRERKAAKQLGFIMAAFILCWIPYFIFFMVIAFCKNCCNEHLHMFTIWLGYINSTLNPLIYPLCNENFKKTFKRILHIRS
Sequence of Cytochrome P450 2D6 (P10635 whole entry): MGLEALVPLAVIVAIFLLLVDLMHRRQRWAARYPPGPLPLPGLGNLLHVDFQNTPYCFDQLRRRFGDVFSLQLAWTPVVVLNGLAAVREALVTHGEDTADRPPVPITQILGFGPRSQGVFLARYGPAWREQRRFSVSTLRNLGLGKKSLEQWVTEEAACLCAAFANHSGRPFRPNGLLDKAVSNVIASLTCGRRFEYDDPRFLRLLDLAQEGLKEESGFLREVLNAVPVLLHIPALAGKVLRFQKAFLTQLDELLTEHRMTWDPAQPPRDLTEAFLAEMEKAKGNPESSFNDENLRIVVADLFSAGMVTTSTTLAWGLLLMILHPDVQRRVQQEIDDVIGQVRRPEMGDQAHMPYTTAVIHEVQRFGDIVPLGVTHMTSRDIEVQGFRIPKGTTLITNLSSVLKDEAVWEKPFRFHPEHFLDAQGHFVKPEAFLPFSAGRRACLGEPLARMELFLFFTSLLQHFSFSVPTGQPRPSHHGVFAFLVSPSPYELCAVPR

inhibition [2]: 35.5%
microsomal CLint at 1 h (in vitro): 103 µL/min/mg
Ki [3]: 6.2 µM
Ki [5]: 0.032 µM
Ki [6]: 0.025 µM
Papp B→A (P-gp (ABCB1) [7]): 3.43 ×10⁻⁶ cm/s
Kb [8]: 0.027 µM
half-life at 1 h [10]: 14 min
inhibition [11]: -1.3%
Ki [12]: 13.8 µM
inhibition [13]: 3.2%
Kp [14]: 0.7
Papp A→B (P-gp (ABCB1) [15]): 8.87 ×10⁻⁶ cm/s
IC50 (Cytochrome P450 2D6): 8.4 µM
inhibition [16]: 19.1%
inhibition [17]: 4%
inhibition [18]: 8.9%
IC50 (Cytochrome P450 3A4): 7.8 µM
inhibition at 1 µM (5-HT2C receptor): 59.9%
SMILES: Oc1ccc(-c2ccc(CNCCc3c[nH]c4ncc(F)cc34)o2)cc1
IC50 (HepG2 [1]): 6.2 µM
IC50 (HepG2 [4]): 5.14 µM
Activity (Rattus norvegicus): Active
Activity [9]: Non-Toxic
inhibition at 1 µM (hERG (KCNH2)): 42.2%
